Legend:
[1] = target: T1, Metallo-beta-lactamase type 2 [29-270] (Klebsiella pneumoniae, UniProt C7C422); experiment: Enzyme Inhibition Assay
T1 construct: 29-270
Procedure: (§1) Freshly prepared Zn2-NDM-1 (50 nM) or Zn2-VIM-2 were first incubated with various concentrations of Bi(III) compounds for 1 h at 25° C. The assay was performed in a 1 cm quartz cuvette using the kinetic mode of Varian Cary 50 UV-visible spectrophotometer at 25° C. The final assay buffer contains 50 mM HEPES/Na pH 7.0, 100 mM NaCl and 100 μM MER. The decrease in absorbance at 300 nm due to ring-opening of MER was monitored every second for a duration of 10 mins until the reaction was completed. The initial rate were extracted and calculated from each reaction curves.

[2] = target: T2, Metallo-beta-lactamase VIM-2 [21-266] (Klebsiella pneumoniae, UniProt Q3Y6Q3); experiment: Enzyme Inhibition Assay
T2 construct: 21-266
Procedure: as §1

T1 sequence (C7C422 29-270): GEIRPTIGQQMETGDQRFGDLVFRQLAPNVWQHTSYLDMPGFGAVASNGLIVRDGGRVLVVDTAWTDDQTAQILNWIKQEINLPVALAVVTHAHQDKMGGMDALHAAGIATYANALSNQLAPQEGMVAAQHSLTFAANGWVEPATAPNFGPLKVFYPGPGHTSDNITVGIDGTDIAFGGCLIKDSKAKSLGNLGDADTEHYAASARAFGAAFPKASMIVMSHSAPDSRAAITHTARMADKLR

Compound: CC(=O)N[C@@H](CS)C(=O)O [US10624871, Compound 21]
- IC50 [1]: 17.7 µM

Compound: [Bi+3] [US10624871, Compound Bi(NO3)3]
- IC50 [1]: 1.89 µM
- IC50 [2]: 2.45 µM

Compound: O=C(O)C[C@@](O)(CC(O)O)C(=O)O [US10624871, Compound 10]
- IC50 [1]: 5.83 µM
- IC50 [2]: 44.5 µM

Compound: C[C@H](CS)C(=O)N1CCC[C@H]1C(=O)O [US10624871, Compound 15]
- IC50 [2]: 6.17 µM
